Test results as given in US6376511B2, “8-aminoquinolines” (The University of Mississippi, priority 1999, dated 2002).
Like-named read-outs stand apart in the source and are kept apart here.

Key:
[1] = rhesus monkey; cited from earlier work
Pneumocystis carinii = experiment: Anti-Pneumocystis carinii test (induced Pneumocystis carinii infection in immunosuppressed mice), oral; assay type: in vivo; details: mice (Table 8), listed as (−) Enantiomer
[2] = tested on: Plasmodium berghei KBG-173; assay type: in vivo; details: P. berghei in mice
Method: Blood Schizontocidal Test (Trophozoite-Induced Plasmodium berghei Infection in mice University of Miami, Test System: Thompson Test
Drugs were mixed in 0.5% hydroxycellulose 0.1% Tween 80 and administered orally b.i.d. on days 3, 4 and 5 postinfection. CD-1 male or female mice, 5 weeks of age, were infected with 5×10^4 parasitized erythrocytes of Plasmodium berghei KBG-173 mm strain. Blood films were taken on day +6 and weekly thereafter until day +60. Parasitemias were calculated and SD90 value (dose suppressing 90% of the parasites in treated groups compared with the infected non-treated controls) on day +6 postinfection. Mortality data was tabulated for 60 days at which time all mice surviving that were blood film negative were considered cured.
[…] The activity of these compounds were compared with the untreated control and “racemate” which is a mixture of equal amount of each enantiomer X and Y. In untreated controls, death occurs within 8-9 days. Compounds which are effective against Plasmodium berghei infection increase the mean survival time of the infected animals when compared with the untreated controls. Mice that survive after thirty days and are free of parasites in blood are considered cured.
Efficacy of the drug is determined by the number of cures at the end of a 30 day period and the increase in mean survival time over the control (ΔMST). The effect of the test drugs also could be determined by the reduction of the parasitemia (percentage of the red blood cells detected with the parasites) over the untreated control on day 6, one day after the treatment is completed. Both these methods yield virtually identical results. If the dose of test compounds are inadequate, after initial clearance, residual parasites will multiply and relapses will occur within thirty days. The blood schizontocidal activities (suppressive antimalarial) of X, Y, and racemate against P. berghei in mice are shown in Table 11.

L. donovani Chagasi PP75 = experiment: In vitro anti-Leishmania activity, Giemsa counts; assay type: cell-based; details: 1350 ng/mL; control 6.35
[3] = oral dose 1 mg/kg/day (total dose 3 mg/kg)
[4] = oral dose 4 mg/kg/day (total dose 12 mg/kg)
[5] = oral dose 16 mg/kg/day (total dose 48 mg/kg)
[6] = oral dose 64 mg/kg/day (total dose 192 mg/kg)

Row | Structure (SMILES) | toxicity relative to d-primaquine [1] | toxicity relative to racemic primaquine [1] | Number of animals with organism after treatment/Number of animals treated, Giesma Stain (Pneumocystis carinii; oral 5 mg/kg/day (x21), 5 mg/kg/day) | Number of animals with organism after treatment/Number of animals treated, Giesma Stain (Pneumocystis carinii; oral 10 mg/kg/day (x21), 10 mg/kg/day) | Mice surviving 60 days/Mice infected and treated [2, 3] | Mice surviving 60 days/Mice infected and treated [2, 4] | Mice surviving 60 days/Mice infected and treated [2, 5] | Mice surviving 60 days/Mice infected and treated [2, 6] | Giemsa Counts (L. donovani Chagasi PP75)
1 | COc1cc(NC(C)CCCN)c2ncccc2c1 (single isomer, unassigned; (-)) [(−) Primaquine, reference compound] | 3 to 5 times | at least twice as toxic | 10/10 | 10/10 | – | – | – | – | –
2 | COc1cc(C)c2c(Oc3cccc(C(F)(F)F)c3)c(OC)cc(NC(C)CCCN)c2n1 (centres unmarked) [WR-238,605, reference compound] | – | – | – | – | 0/7 | 1/7 | 7/7 | 1/7 | –
3 | COc1cc(NC(C)CCCN)c2nccc(C)c2c1Oc1cccc(C(F)(F)F)c1 (centres unmarked) [WR-225,448, reference compound] | – | – | – | – | 7/7 | 7/7 | 7/7 | 4/7 | –
4 | O=C1C(O)=C([C@H]2CC[C@H](c3ccc(Cl)cc3)CC2)C(=O)c2ccccc21 [Atovaquone, reference compound] | – | – | – | – | – | – | – | – | 5.05 ± 0.21
5 | CCCCCOc1c(OC)cc(NC(C)CCCN)c2nccc(C)c12 (centres unmarked) [Compound 4] | – | – | – | – | 7/7 | 7/7 | 4/7 | 0/7 | –
